A value given as a limit tells only on which side of the number the result lay.

The target of this test is T1, human recombinant SERT (HEK293-hSERT cells) (Homo sapiens, UniProt P31645).
T1 construct: expressed in transfected cells; host or cells: HEK293 (stably transfected), whole cells
T1 sequence (P31645 whole entry): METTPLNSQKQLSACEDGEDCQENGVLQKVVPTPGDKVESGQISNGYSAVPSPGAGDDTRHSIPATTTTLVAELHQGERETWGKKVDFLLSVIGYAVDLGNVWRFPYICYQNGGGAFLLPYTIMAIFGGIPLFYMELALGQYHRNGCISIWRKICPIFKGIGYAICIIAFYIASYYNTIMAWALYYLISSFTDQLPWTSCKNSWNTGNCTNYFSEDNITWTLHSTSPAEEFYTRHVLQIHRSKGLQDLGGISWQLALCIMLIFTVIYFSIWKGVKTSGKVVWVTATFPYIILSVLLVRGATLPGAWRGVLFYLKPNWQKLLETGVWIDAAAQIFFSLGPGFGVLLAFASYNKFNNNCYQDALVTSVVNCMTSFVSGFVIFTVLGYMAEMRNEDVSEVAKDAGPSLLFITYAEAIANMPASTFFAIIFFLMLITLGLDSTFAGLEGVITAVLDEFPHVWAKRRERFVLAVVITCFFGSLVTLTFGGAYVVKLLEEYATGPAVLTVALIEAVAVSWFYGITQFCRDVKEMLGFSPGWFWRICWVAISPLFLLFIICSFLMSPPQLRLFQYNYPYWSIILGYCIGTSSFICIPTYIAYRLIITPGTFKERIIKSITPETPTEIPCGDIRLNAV
Briefly: hSERT neurotransmitter uptake assay. It is filed as cell-based. As to conditions: serotonin reuptake inhibition in HEK293-hSERT cells; read-out: SERT pIC50 (converted). The procedure:
HEK293 cells stably-transfected with human recombinant SERT (HEK293-hSERT) were grown in Dulbecco's Modified Eagle's Medium supplemented with 10% dialyzed fetal bovine serum, 100 µg/ml penicillin, 100 µg/ml streptomycin, 2 mM L-glutamine, and 250 μg/ml of the aminoglycoside antibiotic G418. Cells were incubated in a 5% CO2, humidified incubator at 37° C.
In pre-incubation studies, test compound was added to cells for 30 minutes at 37° C. prior to the addition of fluorescent substrate. […] For real-time measurements, compounds were either preincubated (as above) or mixed with substrate prior to addition, and kinetic measurements, relative fluorescence units (RFU integrated over 0.5 ms),were made using a cycle time of 1 min.
In the case of `Cn1cncc1S(=O)(=O)NC[C@@H](Oc1ccc(C(F)(F)F)cc1)[C@H]1CCNC1` [Example 3-14, 3-Methyl-3H-imidazole-4-sulfonic acid [(S)-2-(S)-pyrrolidin-3-yl-2-(4-trifluoromethylphenoxy)ethyl]amide], the IC50 is ≤ 100 nM.

On to `O=S(=O)(NC[C@@H](Oc1ccc(C(F)(F)F)cc1)[C@H]1CCNC1)N1CCOCC1` [Example 3-17, Morpholine-4-sulfonic acid [(S)-2-(S)-pyrrolidin-3-yl-2-(4-trifluoromethylphenoxy)ethyl]amide], for which the IC50 is ≤ 10 nM.

On to `CN(C)S(=O)(=O)NC[C@@H](Oc1ccc(C(F)(F)F)cc1)[C@H]1CCNC1` [Example 3-11], for which the IC50 was ≤ 10 nM.

`NS(=O)(=O)c1ccc(S(=O)(=O)NCC(Oc2ccc(C(F)(F)F)cc2)C2CCNC2)cc1` [Example 3-30, Benzene-1,4-disulfonic acid lamide 4-{[(S)-2-(S)-pyrrolidin-3-yl-2-(4-trifluoromethylphenoxy)ethyl]amide}]: the IC50 was ≤ 10 nM.

On to `O=[N+]([O-])c1ccc(S(=O)(=O)NC[C@@H](Oc2ccc(C(F)(F)F)cc2)[C@H]2CCNC2)cc1` [Example 3-22, 4-Nitro-N-[(S)-2-(S)-pyrrolidin-3-yl-2-(4-trifluoromethylphenoxy)ethyl]benzenesulfonamide], for which the IC50 was ≤ 10 nM.

In the case of `O=S(=O)(NC[C@@H](Oc1ccc(C(F)(F)F)cc1)[C@H]1CCNC1)c1ccc(-c2ncccn2)cc1` [Example 3-34, 4-Pyrimidin-2-yl-N-[(S)-2-(S)-pyrrolidin-3-yl-2-(4-trifluoromethylphenoxy)ethyl]benzenesulfonamide], the IC50 was ≤ 10 nM.

In the case of `NS(=O)(=O)C[C@@H](Oc1ccc(C(F)(F)F)cc1)[C@H]1CCNC1` [Example 4, (S)-2-(S)-Pyrrolidin-3-yl-2-(4-trifluoromethylphenoxy)ethanesulfonic Acid Amide], the IC50 is ≤ 10 nM.

Regarding `CNS(=O)(=O)c1ccc(S(=O)(=O)NCC(Oc2ccc(C(F)(F)F)cc2)C2CCNC2)cc1` [Example 3-31, Benzene-1,4-disulfonic acid 1-methylamide 4-{[(S)-2-(S)-pyrrolidin-3-yl-2-(4-trifluoromethylphenoxy)ethyl]amide}], the IC50 was ≤ 10 nM.

On to `CS(=O)(=O)c1cccc(S(=O)(=O)NC[C@@H](Oc2ccc(C(F)(F)F)cc2)[C@H]2CCNC2)c1` [Example 3-28, 3-Methanesulfonyl-N-[(S)-2-(S)-pyrrolidin-3-yl-2-(4-trifluoromethylphenoxy)ethyl]benzenesulfonamide], for which the IC50 was ≤ 100 nM.

As for `CC(C)S(=O)(=O)NC[C@@H](Oc1ccc(C(F)(F)F)cc1)[C@H]1CCNC1` [Example 3-7, Propane-2-sulfonic acid [(S)-2-(S)-pyrrolidin-3-yl-2-(4-trifluoromethylphenoxy)ethyl]amide], the IC50 is ≤ 100 nM.

`CS(=O)(=O)NC[C@@H](Oc1ccc(C(F)(F)F)cc1)[C@@H]1CCNC1` (stereo in doubt) [Example 3-2, N-[(R)-2-(S)-Pyrrolidin-3-yl-2-(4-trifluoromethylphenoxy)ethyl]-methanesulfonamide]: the IC50 was ≤ 100 nM.

As to `O=S(=O)(NC[C@@H](Oc1ccc(C(F)(F)F)cc1)[C@H]1CCNC1)c1cccc2nonc12` [Example 3-16, Benzo[1,2,5]oxadiazole-4-sulfonic acid [(S)-2-(S)-pyrrolidin-3-yl-2-(4-trifluoromethylphenoxy)ethyl]amide], the IC50 was ≤ 10 nM.

Turning to `O=S(=O)(NC[C@@H](Oc1ccc(C(F)(F)F)cc1)[C@H]1CCNC1)C1CC1` [Example 3-8, Cyclopropanesulfonic acid [(S)-2-(S)-pyrrolidin-3-yl-2-(4-trifluoromethylphenoxy)ethyl]amide], the IC50 was ≤ 10 nM.

For `CS(=O)(=O)c1ccccc1S(=O)(=O)NC[C@@H](Oc1ccc(C(F)(F)F)cc1)[C@H]1CCNC1` [Example 3-29, 2-Methanesulfonyl-N-[(S)-2-(S)-pyrrolidin-3-yl-2-(4-trifluoromethylphenoxy)ethyl]benzenesulfonamide], the IC50 was ≤ 10 nM.

With `O=S(=O)(NC[C@@H](Oc1ccc(C(F)(F)F)cc1)[C@H]1CCNC1)c1ccccc1` [Example 3-19, N-[(S)-2-(S)-Pyrrolidin-3-yl-2-(4-trifluoromethylphenoxy)ethyl]benzenesulfonamide], the IC50 was ≤ 10 nM.

On to `CNC(=O)c1cccc(S(=O)(=O)NCC(Oc2ccc(C(F)(F)F)cc2)C2CCNC2)c1` [Example 3-25, N-Methyl-3-[(S)-2-(S)--pyrrolidin-3-yl-2-(4-trifluoromethylphenoxy)ethylsulfamoyl]benamide], for which the IC50 is ≤ 10 nM.

`O=S(=O)(NC[C@@H](Oc1ccc(C(F)(F)F)cc1)[C@@H]1CCNC1)c1ccccc1` (stereo in doubt) [Example 3-18, N-[(R)-2-(S)-Pyrrolidin-3-yl-2-(4-trifluoromethylphenoxy)ethyl]benzenesulfonamide]: the IC50 was ≤ 10 nM.

Turning to `Cc1cc(C)n(-c2ccc(S(=O)(=O)NCC(Oc3ccc(C(F)(F)F)cc3)C3CCNC3)cc2)n1` [Example 3-33, 4-(3,5-Dimethyl-pyrazol-1-yl)-N-(S)-2-(S)-pyrrolidin-3-yl-2-(4-trifluoromethylphenoxy)ethyl]benzenesulfonamide], the IC50 was ≤ 10 nM.

With `O=S(=O)(NCC(Oc1ccc(C(F)(F)F)cc1)C1CCNC1)c1ccc(-c2nnn[nH]2)cc1` [Example 3-35, N[(S)-2-(S)-Pyrrolidin-3-yl-2-(4-trifluoromethylphenoxy)ethyl]-4-(1H-tetrazol-5-yl)-benzenesulfonamide], the IC50 was ≤ 100 nM.

Consider `N#Cc1ccc(S(=O)(=O)NC[C@@H](Oc2ccc(C(F)(F)F)cc2)[C@H]2CCNC2)cc1` [Example 3-20, 4-Cyano-N-[(S)-2-(S)-pyrrolidin-3-yl-2-(4-trifluoromethylphenoxy)ethyl]benzenesulfonamide], for which the IC50 is ≤ 10 nM.

In the case of `O=S(=O)(NC[C@@H](Oc1ccc(C(F)(F)F)cc1)[C@H]1CCNC1)c1ccc(-n2cccn2)cc1` [Example 3-32, 4-Pyrazol-1-yl-N-[(S)-2-(S)-pyrrolidin-3-yl-2-(4-trifluoromethylphenoxy)ethyl]benzenesulfonamide], the IC50 was ≤ 10 nM.

On to `O=S(=O)(NC[C@@H](Oc1ccc(C(F)(F)F)cc1)[C@H]1CCNC1)c1ncn[nH]1` [Example 3-15], for which the IC50 was ≤ 100 nM.

Regarding `O=S(=O)(C[C@@H](Oc1ccc(C(F)(F)F)cc1)[C@H]1CCNC1)NCc1ccccc1` [Example 5, (S)-2-(S)-Pyrrolidin-3-yl-2-(4-trifluoromethylphenoxy)ethanesulfonic Acid Benzylamide], the IC50 was ≤ 10 nM.

Take `CNS(=O)(=O)N(C)C[C@@H](Oc1ccc(C(F)(F)F)cc1)[C@H]1CCNC1` [Example 1]: the IC50 is ≤ 10 nM.

Turning to `CNS(=O)(=O)C[C@@H](Oc1ccc(C(F)(F)F)cc1)[C@H]1CCNC1` [Example 6, (S)-2-(S)-Pyrrolidin-3-yl-2-(4-trifluoromethylphenoxy)ethanesulfonic Acid Methylamide], the IC50 is ≤ 10 nM.

`CCS(=O)(=O)NC[C@@H](Oc1ccc(C(F)(F)F)cc1)[C@H]1CCNC1` [Example 3-5, Ethanesulfonic acid [(S)-2-(S)-pyrrolidin-3-yl-2-(4-trifluoromethylphenoxy)-ethyl]amide]: the IC50 is ≤ 10 nM.

The record behind these values is patent publication US8637568B2, “Serotonin reuptake inhibitors” (Theravance, Inc., priority 2010, dated 2014).
